Assay [1] has as its target T1, human recombinant CD38 enzyme (Homo sapiens, UniProt P28907).
T1 construct: purchased R&D Systems H7006
T1 sequence (P28907 1-300): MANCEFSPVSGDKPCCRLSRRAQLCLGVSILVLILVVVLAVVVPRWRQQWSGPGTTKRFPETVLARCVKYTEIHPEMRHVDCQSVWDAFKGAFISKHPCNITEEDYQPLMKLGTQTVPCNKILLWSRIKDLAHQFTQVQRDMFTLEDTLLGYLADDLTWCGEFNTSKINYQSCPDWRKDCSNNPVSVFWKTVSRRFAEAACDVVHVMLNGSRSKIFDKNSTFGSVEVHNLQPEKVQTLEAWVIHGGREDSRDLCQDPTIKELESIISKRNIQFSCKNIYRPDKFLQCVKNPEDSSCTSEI
In words: Human recombinant enzyme assay (fluorimetric CD38 enzyme assay, ε-NAD substrate). It counts as biochemical. The conditions noted are these: recombinant CD38 100 ng/ml, ε-NAD 100 µM, pH = 6.0, 37°C, reaction time 30 min; read-out: IC50 (nM) ENAD. Here is the method: Enzyme assay on human recombinant CD38 enzyme were performed in order to determine the in vitro potency of the newly synthesized compounds. IC50 values were determined for the test compounds and used to explore the structure-activity relationships (SAR).
(§1) N6-etheno-NAD (ε-NAD), a NAD analogue previously shown to be a convenient substrate of CD38 enzyme activity (Graeff et al. J. Biol. Chem. 269, pp 30260-30367, […]) was used to measure the activity of human recombinant CD38 and cell surface enzyme activity.
A fluorimetric CD38 enzyme assay was performed as described by Graeff et al. The reaction was started with 10 µl of N6-etheno-NAD (ε-NAD) substrate, final concentration 100 µM, in a final volume of 0.1 ml buffered with 50 mM HEPES, 0.05% BRIJ, pH = 6.0 containing 100 ng/ml recombinant CD38 (R&D Systems, H7006). Cleavage of ε-NAD, which causes a 10-fold fluorescence enhancement, was continuously followed at 37°C in a BMG Polarstar spectrofluorometer at an emission wavelength of 410 nm and an excitation of 300 nm, reaction time was 30 min. NADase activity was expressed as Δ relative fluorescence/min. The rate of enzyme reactions were compared in the presence and absence of inhibitor molecule, the IC50 values were calculated with Biostat Speed program.

Assay [2] concerns the target T2, natural cell surface human CD38 enzyme (Homo sapiens, UniProt P28907).
T2 construct: The A549 cells express active CD38 enzyme on the cell surface; endogenous in cells; host or cells: A549 human lung epithelial cells (ATCC CCL 185)
T2 sequence (P28907 1-300): T1 sequence (P28907 1-300)
In words: Cell surface enzyme assay on A549 cells. The class given is cell-based. The conditions noted are these: A549 human lung epithelial cells, pre-incubated 15 min, ε-NAD 100 µM, 60 min, pH=7.4. Here is the method: A549 human lung epithelial cells were used as enzyme source. The A549 cells express active CD38 enzyme on the cell surface.
as §1
Type II-like human lung epithelial cells A 549 (ATCC CCL 185) were grown in RPMI 1640 medium supplemented with 10% fetal calf serum, 2mM 1-glutamine and penicillin/streptomycin 1% in a humidified incubator with an atmosphere of 95% air and 5% CO2 at 37 °C. At about 70-80% confluence, cells were detached with trypsin/EDTA solution to form a cell suspension and counted. Cell viability was higher as 95% using trypan blue dye. Cells were plated at a density of 500.000 cells/well (24 well plate), before 24 hours of starting the enzyme assay. The medium was removed and replaced by assay buffer (20 mM HEPES, pH=7.4 containing 140 mM NaCl, 5 mM KCl, 1 mM MgSO4 1 mM CaCl2, 1mM Na2HPO4, 5.5 mM glucose).
A549 cells (800.000/well, 500 µl) were pre-incubated in the presence and absence of inhibitors for 15 min before the addition of ε-NAD, final substrate concentration was 100 µM. After 60 min, the plate was centrifuged and 100 µl of supernatant was removed and measured fluorimetrically in BMG Polarstar spectrofluorimeter at an emission wavelength of 410 nm and an excitation of 300 nm. The mean difference in the fluorescence between reaction stopped at 0 and 60 min was used an arbitrary unit of NADase activity. The NADase activity in the absence and presence of inhibitors were compared and IC50 values were calculated.

This passage reports IC50 results from EP2801573A1, “Hydantoine derivatives as CD38 inhibitors” (SANOFI, priority 2013, dated 2014).

`O=C1N/C(=C\c2ccncc2)C(=O)N1CC1(O)CCCC1` [Compound 58, 3-(1-Hydroxy-cyclopentylmethyl)-5-[1-pyridin-4-yl-meth-(Z)-ylidene]-imidazolidine-2,4-dione]: the concentration for half-maximal inhibition (IC50) turned out to be 30 nM in assay [1] and 246 nM in assay [2].

As to `O=C1N/C(=C\c2ccncc2)C(=O)N1c1ccc(Cl)cc1` [Compound 2, 3-(4-Chloro-phenyl)-5-[1-pyridin-4-yl-meth-(Z)-ylidene]-imidazolidine-2,4-dione], the IC50 in assay [1] was 30 nM; in assay [2], 181 nM.

Turning to `O=C1N/C(=C\c2ccncc2)C(=O)N1C1CC(F)(F)C1` [Compound 53, 3-(3,3-Difluoro-cyclobutyl)-5-[1-pyridin-4-yl-meth-(Z)-ylidene]-imidazolidine-2,4-dione], the IC50 in assay [1] amounted to 50 nM; in assay [2] it was 249 nM.

For orientation: IC50 means the midpoint of a concentration-inhibition curve.
